From patent publication US8372865B2, “Dihydropyridone amides as P2X7 modulators” (Roche Palo Alto LLC, priority 2008, dated 2013)

These compounds were tested against T1, P2X7 receptor (UniProt Q99572) (assay: pKi of Table 1 (assay not stated)).
T1 sequence (Q99572 1-595): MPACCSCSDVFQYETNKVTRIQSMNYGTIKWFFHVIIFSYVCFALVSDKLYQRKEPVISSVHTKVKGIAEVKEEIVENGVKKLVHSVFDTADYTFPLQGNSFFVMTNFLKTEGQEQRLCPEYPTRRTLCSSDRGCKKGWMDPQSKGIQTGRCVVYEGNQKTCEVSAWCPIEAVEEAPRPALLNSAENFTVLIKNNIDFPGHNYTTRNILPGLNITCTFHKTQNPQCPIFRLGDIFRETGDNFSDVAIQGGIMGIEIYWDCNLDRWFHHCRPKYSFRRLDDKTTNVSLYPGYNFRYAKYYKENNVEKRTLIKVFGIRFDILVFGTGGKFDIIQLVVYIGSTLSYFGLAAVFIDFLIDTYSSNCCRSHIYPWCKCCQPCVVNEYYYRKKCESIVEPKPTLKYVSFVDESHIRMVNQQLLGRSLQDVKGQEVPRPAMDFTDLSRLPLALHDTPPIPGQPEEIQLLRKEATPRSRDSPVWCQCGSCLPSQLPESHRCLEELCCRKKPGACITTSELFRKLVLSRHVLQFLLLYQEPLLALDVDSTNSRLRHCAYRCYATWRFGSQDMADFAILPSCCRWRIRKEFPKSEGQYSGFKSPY
Format: cell-based
Procedure: Intracellular Calcium Flux (FLIPR) Assay
Stock solutions of compounds were prepared from powders as a 10 mM DMSO stock solution. These solutions were stored at RT during the two week period of these experiments to prevent freeze-thaw of the DMSO stocks. The DMSO stocks were added to the appropriate assay buffer at a concentration of 10 μM, and then diluted serially to the final concentrations that were tested. […] The aqueous solutions of compounds as well as ATP (Sigma A7699) and BzATP (Sigma B6396) were prepared fresh for each day of experiment.
1321N1 cells stably expressing the full length human P2X7 gene (1321N1-hP2X7) and HEK293 cells stably expressing the full length rat P2X7 gene (HEK293-rP2X7) were obtained from the Roche Cell Culture Facility. 1321N1-hP2X7 cells were grown in Dulbecco's Modified Eagle's Medium (DMEM) high glucose supplemented with 10% FBS and 250 μg/mL G418. HEK293-rP2X7 cells were grown in DMEM/F-12 supplemented with 10% FBS, 1 mM CaCl2, 2 mM MgCl2, 2 mM L-Glutamine and 500 μg/ml G418. Cells were split such that they never became>70% confluent.
On the day prior to the experiment, 1321N1-hP2X7 or HEK293-rP2X7 cells were released into suspension with calcium-free PBS+Versene and washed by centrifugation with calcium-free PBS to remove the Versene. Cells were resuspended in growth medium at a density of 2.5×10^5 cells/mL and seeded into black walled, clear bottom 96 well plates (50,000 cells/well) approximately 18 hr prior to intracellular calcium flux experiments.
On the day of the experiment, plates were washed with FLIPR buffer (calcium- and magnesium-free Hank's Balanced Salt Solution (HBSS) supplemented with 10 mM Hepes, 2.5 mM probenecid and 2 mM calcium chloride) using a BIO-TEK 96 channel plate washer and incubated with […] fluo-3 dye at 37° C. for one hr. The dye was then removed by plate washing and the cells were allowed to equilibrate for 20 min at room temperature with antagonist or vehicle (FLIPR buffer). Agonist (100 μM BzATP final concentration for hP2X7; 5 μM BzATP final concentration or rP2X7) was added online with the FLIPR and fluorescence measurements made at 1 sec intervals for 60 sec followed by 3 sec intervals for a further 4 min (5 min total). A final addition of 5 μM ionomycin was made and the maximal BzATP-evoked fluorescence normalized to the maximal ionomycin-evoked fluorescence.

Point of comparison: `O=C1C[C@@H](c2cccc(F)c2)C(C(=O)Nc2ccc3ncccc3c2Br)=CN1` [Compound 4, (S)-4-(3-Fluoro-phenyl)-6-oxo-1,4,5,6-tetrahydro-pyridine-3-carboxylic acid (5-bromo-quinolin-6-yl)-amide], pKi 6.953. Against it:
- Cc1cc2c(cc1NC(=O)C1=CNC(=O)C[C@H]1c1ccc(F)cc1)NC(=O)CO2 [Compound 36, (S)-4-(4-Fluoro-phenyl)-6-oxo-1,4,5,6-tetrahydro-pyridine-3-carboxylic acid (7-methyl-3-oxo-3,4-dihydro-2H-benzo[1,4]oxazin-6-yl)-amide] — lower, 5.56
- Cn1ccc2c(NC(=O)C3=CNC(=O)C[C@H]3c3ccc(F)cc3)cccc2c1=O [Compound 58, (S)-4-(4-Fluoro-phenyl)-6-oxo-1,4,5,6-tetrahydro-pyridine-3-carboxylic acid (2-methyl-1-oxo-1,2-dihydro-isoquinolin-5-yl)-amide] — higher, 7.56
- Cc1ccc2c(NC(=O)C3=CNC(=O)C[C@H]3c3ccc(F)cc3)cccc2n1 [Compound 15, (S)-4-(4-Fluoro-phenyl)-6-oxo-1,4,5,6-tetrahydro-pyridine-3-carboxylic acid (2-methyl-quinolin-5-yl)-amide] — higher, 7.46
- Cc1cc2c(cc1NC(=O)C1=CNC(=O)C[C@H]1c1cccc(F)c1)N(C)C(=O)CO2 [Compound 24, (S)-4-(3-Fluoro-phenyl)-6-oxo-1,4,5,6-tetrahydro-pyridine-3-carboxylic acid (4,7-dimethyl-3-oxo-3,4-dihydro-2H-benzo[1,4]oxazin-6-yl)-amide] — within 0.2 log units, 7.015
- CCc1cc2cnn(C)c2cc1NC(=O)C1=CNC(=O)C[C@H]1c1cccc(F)c1 [Compound 44, (S)-4-(3-Fluoro-phenyl)-6-oxo-1,4,5,6-tetrahydro-pyridine-3-carboxylic acid (5-ethyl-1-methyl-1H-indazol-6-yl)-amide] — higher, 7.825
- O=C1C[C@@H](c2ccc(F)cc2)C(C(=O)Nc2cc3c(cc2Br)N(CCO)C(=O)CC3)=CN1 [Compound 34, (S)-4-(4-Fluoro-phenyl)-6-oxo-1,4,5,6-tetrahydro-pyridine-3-carboxylic acid [7-bromo-1-(2-hydroxy-ethyl)-2-oxo-1,2,3,4-tetrahydro-quinolin-6-yl]-amide] — within 0.2 log units, 6.785
- CCc1cc2c(cc1NC(=O)C1=CNC(=O)C[C@H]1c1ccc(F)cc1)N(CCO)C(=O)CO2 [Compound 40, (S)-4-(4-Fluoro-phenyl)-6-oxo-1,4,5,6-tetrahydro-pyridine-3-carboxylic acid [7-ethyl-4-(2-hydroxy-ethyl)-3-oxo-3,4-dihydro-2H-benzo[1,4]oxazin-6-yl]-amide] — lower, 6.485
- Cc1cc2c(cc1NC(=O)C1=CNC(=O)C[C@H]1c1ccc(F)cc1)N(C)C(=O)CO2 [Compound 23, (S)-4-(4-Fluoro-phenyl)-6-oxo-1,4,5,6-tetrahydro-pyridine-3-carboxylic acid (4,7-dimethyl-3-oxo-3,4-dihydro-2H-benzo[1,4]oxazin-6-yl)-amide] — lower, 6.73
- O=C1C[C@@H](c2cccc(F)c2)C(C(=O)Nc2cc3c(cc2Br)CCC(=O)N3)=CN1 [Compound 11, (S)-4-(3-Fluoro-phenyl)-6-oxo-1,4,5,6-tetrahydro-pyridine-3-carboxylic acid (6-bromo-2-oxo-1,2,3,4-tetrahydro-quinolin-7-yl)-amide] — lower, 5.415
- O=C1C[C@@H](c2ccc(F)cc2)C(C(=O)Nc2cccc3cnccc23)=CN1 [Compound 14, (S)-4-(4-Fluoro-phenyl)-6-oxo-1,4,5,6-tetrahydro-pyridine-3-carboxylic acid isoquinolin-5-ylamide] — lower, 6.425
- O=C1CC(c2cccc(F)c2)C(C(=O)Nc2cccc3[nH]ccc23)=CN1 (stereo not drawn) [Compound 1, 4-(3-Fluoro-phenyl)-6-oxo-1,4,5,6-tetrahydro-pyridine-3-carboxylic acid (1H-indol-4-yl)-amide] — lower, 5.86
- CN1C=C(C(=O)Nc2cccc3c(=O)n(CCO)ccc23)[C@H](c2ccc(F)cc2)CC1=O [Compound 50, (S)-4-(4-Fluoro-phenyl)-1-methyl-6-oxo-1,4,5,6-tetrahydro-pyridine-3-carboxylic acid [2-(2-hydroxy-ethyl)-1-oxo-1,2-dihydro-isoquinolin-5-yl]-amide] — within 0.2 log units, 7.04
- Cc1ccc2ncccc2c1NC(=O)C1=CNC(=O)C[C@H]1c1ccc(F)cc1 [Compound 27, (S)-4-(4-Fluoro-phenyl)-6-oxo-1,4,5,6-tetrahydro-pyridine-3-carboxylic acid (6-methyl-quinolin-5-yl)-amide] — higher, 7.64
- CCc1c(NC(=O)C2=CNC(=O)C[C@H]2c2ccc(F)cc2)ccc2nc(C)ccc12 [Compound 35, (S)-4-(4-Fluoro-phenyl)-6-oxo-1,4,5,6-tetrahydro-pyridine-3-carboxylic acid (5-ethyl-2-methyl-quinolin-6-yl)-amide] — higher, 7.18
- Cc1c(NC(=O)C2=CNC(=O)C[C@H]2c2ccc(F)cc2)ccc2ncccc12 [Compound 17, (S)-4-(4-Fluoro-phenyl)-6-oxo-1,4,5,6-tetrahydro-pyridine-3-carboxylic acid (5-methyl-quinolin-6-yl)-amide] — within 0.2 log units, 6.805
- Cc1cc2cnn(CCO)c2cc1NC(=O)C1=CNC(=O)C[C@H]1c1ccc(F)cc1 [Compound 28, (S)-4-(4-Fluoro-phenyl)-6-oxo-1,4,5,6-tetrahydro-pyridine-3-carboxylic acid [1-(2-hydroxy-ethyl)-5-methyl-1H-indazol-6-yl]-amide] — higher, 7.645
- Cc1cc2cc(C)n(CCO)c2cc1NC(=O)C1=CNC(=O)C[C@H]1c1ccc(F)cc1 [Compound 29, (S)-4-(4-Fluoro-phenyl)-6-oxo-1,4,5,6-tetrahydro-pyridine-3-carboxylic acid [1-(2-hydroxy-ethyl)-2,5-dimethyl-1H-indol-6-yl]-amide] — lower, 6.285
- Cc1cc2ccn(CCO)c2cc1NC(=O)C1=CNC(=O)C[C@H]1c1ccc(F)cc1 [Compound 9, (S)-4-(4-Fluoro-phenyl)-6-oxo-1,4,5,6-tetrahydro-pyridine-3-carboxylic acid [1-(2-hydroxy-ethyl)-5-methyl-1H-indol-6-yl]-amide] — higher, 7.71
- Cc1cc2c(C)cn(CCO)c2cc1NC(=O)C1=CNC(=O)C[C@H]1c1ccc(F)cc1 [Compound 30, (S)-4-(4-Fluoro-phenyl)-6-oxo-1,4,5,6-tetrahydro-pyridine-3-carboxylic acid [1-(2-hydroxy-ethyl)-3,5-dimethyl-1H-indol-6-yl]-amide] — within 0.2 log units, 6.89
- CCc1cc2ncccc2cc1NC(=O)C1=CNC(=O)C[C@H]1c1ccc(F)cc1 [Compound 7, (S)-4-(4-Fluoro-phenyl)-6-oxo-1,4,5,6-tetrahydro-pyridine-3-carboxylic acid (7-ethyl-quinolin-6-yl)-amide] — lower, 6.673
- O=C1C[C@@H](c2ccc(F)cc2)C(C(=O)Nc2cc3c(cc2Br)CCC(=O)N3CCO)=CN1 [Compound 19, (S)-4-(4-Fluoro-phenyl)-6-oxo-1,4,5,6-tetrahydro-pyridine-3-carboxylic acid [6-bromo-1-(2-hydroxy-ethyl)-2-oxo-1,2,3,4-tetrahydro-quinolin-7-yl]-amide] — lower, 5.535
- Cc1cc2c(cc1NC(=O)C1=CNC(=O)C[C@H]1c1ccc(F)cc1)N(CCO)C(=O)CC2 [Compound 33, (S)-4-(4-Fluoro-phenyl)-6-oxo-1,4,5,6-tetrahydro-pyridine-3-carboxylic acid [1-(2-hydroxy-ethyl)-6-methyl-2-oxo-1,2,3,4-tetrahydro-quinolin-7-yl]-amide] — lower, 6.285
- Cc1ccc2c(NC(=O)C3=CNC(=O)C[C@H]3c3ccc(F)cc3)c(C)ccc2n1 [Compound 49, (S)-4-(4-Fluoro-phenyl)-6-oxo-1,4,5,6-tetrahydro-pyridine-3-carboxylic acid (2,6-dimethyl-quinolin-5-yl)-amide] — higher, 7.8567
